Structures are written as SMILES.

This test has as its target T1, EphB4 kinase (Homo sapiens, UniProt P54760).
T1 construct: made in house; host or cells: Sf9 or Sf21 insect cells (baculovirus)
T1 sequence (P54760 566-987): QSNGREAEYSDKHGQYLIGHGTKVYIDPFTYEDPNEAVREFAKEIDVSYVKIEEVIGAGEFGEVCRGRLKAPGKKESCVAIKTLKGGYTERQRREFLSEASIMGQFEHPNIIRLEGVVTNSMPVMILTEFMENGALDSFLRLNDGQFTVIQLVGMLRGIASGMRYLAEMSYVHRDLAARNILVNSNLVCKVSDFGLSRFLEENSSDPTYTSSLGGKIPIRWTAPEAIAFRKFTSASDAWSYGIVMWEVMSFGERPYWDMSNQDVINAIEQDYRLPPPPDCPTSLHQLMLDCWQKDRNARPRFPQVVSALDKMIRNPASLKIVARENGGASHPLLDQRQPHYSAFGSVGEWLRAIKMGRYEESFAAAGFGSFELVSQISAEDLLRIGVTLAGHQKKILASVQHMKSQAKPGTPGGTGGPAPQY
As to the kind of experiment: Inhibition of EphB4 kinase activity (33P incorporation into poly(Glu,Tyr), filter assay). The test is classed as biochemical. Particulars: purified GST-EphB4, 2.0-3.0 μM ATP, poly(Glu,Tyr) 4:1; read-out: IC50 (μmol/l), Inhibition of EphB4 kinase. The source says:
Generation of Bac-to-Bac™ (Invitrogen Life Technologies, Basel, Switzerland) GST-fusion expression vectors: Entire cytoplasmatic coding regions of the EphB-class are amplified by PCR from cDNA libraries derived from human placenta or brain, respectively. Recombinant baculovirus are generated that express the amino acid region 566-987 of the human EphB4 receptor (SwissProt Database, Accession No. P54760). GST sequence is cloned into pFastBac1® vector (Invitrogen Life Technologies, Basel, Switzerland) and PCR amplified. cDNAs encoding EphB4-receptor domains, respectively are cloned in frame 3′prime to the GST sequence into this modified FastBac1 vector to generate pBac-to-Bac™ donor vectors. Single colonies arising from the transformation are inoculated to give overnight cultures for small scale plasmid preparation. […] By automated sequencing the inserts and approximately 50 bp of the flanking vector sequences are confirmed on both strands.
Production of viruses: Viruses for each of the kinases are made according to the protocol supplied by GIBCO if not stated otherwise. In brief, transfer vectors containing the kinase domains are transfected into the DH10Bac cell line (GIBCO) and plated on selective agar plates. Colonies without insertion of the fusion sequence into the viral genome (carried by the bacteria) are blue. Single white colonies are picked and viral DNA (bac-mid) isolated from the bacteria by standard plasmid purification procedures. Sf9 cells or Sf21 cells are then transfected in 25 cm^2 flasks with the viral DNA using Cellfectin reagent according to the protocol. […]
Protein kinase assays: The activities of protein kinases are assayed in the presence or absence of inhibitors, by measuring the incorporation of ^33P from [γ^33P]ATP into a polymer of glutamic acid and tyrosine (poly(Glu,Tyr)) as a substrate. […] Membranes are counted after drying at ambient temperature, mounting in Packard TopCount96-well frame, and addition of 10 μL/well of Microscint™ (Packard). […]
Take `COc1ccc(-n2ncc3c(Nc4ccccc4C)ncnc32)cc1` [Example 21, [1-(4-Methoxy-phenyl)-1H-pyrazolo[3,4-d]pyrimidin-4-yl]-o-tolyl-amine]: the IC50 came out at 0.16 µmol/L. On to `COc1ccc(-n2ncc3c(Nc4cc(F)ccc4C)ncnc32)cc1` [Example 23, (5-Fluoro-2-methyl-phenyl)-[1-(4-methoxy-phenyl)-1H-pyrazolo[3,4-d]pyrimidin-4-yl]-amine], for which the IC50 is 0.5 µmol/L. Then `Cc1cccc(C)c1Nc1nc(CCCN(C)C)nc2c1cnn2-c1ccccc1` [Example 27, [6-(3-Dimethylamino-propyl)-1-phenyl-1H-pyrazolo[3,4-d]pyrimidin-4-yl]-(2,6-dimethyl-phenyl)-amine], with 0.4 µmol/L.

Values taken from patent US20080096868A1, “1,4 Substituted Pyrazolopyrimidines as Kinase Inhibitors” (priority 2004, published 2008).
